In assay [1] the target is MAPK14 (UniProt Q16539). Put plainly: Enzyme Assay.
Assay [2] concerns the target MAPK14 (human) (UniProt Q16539). Put plainly: Cell-Based Assay. The conditions noted are these: monocyte.
Assay [3] deals with MAPK14 (UniProt Q16539). Put plainly: Enzyme Assay. The source holds these as a separate data set.

The values below come from the Kinase Knowledgebase extract (Sharma et al. 2016).

Structures are written as SMILES. Some results are limits rather than exact numbers.

One may read the IC50 as the point on the concentration scale where inhibition reaches its midpoint.

Sequence of MAPK14 (human) (Q16539 whole entry, looked up): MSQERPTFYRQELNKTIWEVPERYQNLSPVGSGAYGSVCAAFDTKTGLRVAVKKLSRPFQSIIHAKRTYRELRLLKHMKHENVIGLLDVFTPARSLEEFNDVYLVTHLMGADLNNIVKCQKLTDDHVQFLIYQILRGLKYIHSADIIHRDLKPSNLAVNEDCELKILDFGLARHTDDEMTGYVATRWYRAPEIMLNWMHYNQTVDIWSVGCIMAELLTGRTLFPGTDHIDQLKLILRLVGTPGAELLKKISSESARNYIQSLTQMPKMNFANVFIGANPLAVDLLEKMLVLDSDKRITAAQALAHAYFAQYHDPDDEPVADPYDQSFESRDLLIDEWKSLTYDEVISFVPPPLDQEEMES
Sequence of MAPK14 (Q16539 whole entry, looked up): as above

As to `Clc1ccccc1-c1nc2n(c1-c1ccncc1)CCC2`, the IC50 in assay [1] came to 0.25 µM.

As to `Cc1cc(-c2[nH]c(-c3ccc([S+](C)[O-])cc3)nc2-c2ccc(F)cc2)ccn1` (configuration not stated), the IC50 in assay [2] came to 0.43 µM.

With `CS(=O)(=O)c1ccc(-c2nc3n(c2-c2ccncc2)CCC3)cc1`, the concentration for half-maximal inhibition (IC50) in assay [2] and in assay [1] was above 10 µM throughout.

For `CC(C)(C)C1=CC(O)(C(C)(C)C)CC(c2nc(-c3ccc(F)cc3)c(-c3ccncc3)[nH]2)=C1` (configuration not stated), the IC50 in assay [2] was above 5 µM; in assay [1] it was above 30 µM; in assay [3], above 2.5 µM.

Take `Clc1cccc(-c2nc3n(c2-c2ccncc2)CCC3)c1`: the concentration for half-maximal inhibition (IC50) is 0.05 µM in assay [2] and 0.04 µM in assay [1].

For `Cc1cc(-c2c(-c3ccc(F)cc3)ncn2CCCN2CCOCC2)ccn1`, the half-maximal inhibitory concentration (IC50) in assay [1] was found to be 3 µM.

`Fc1ccc(-c2ncn(CCCN3CCOCC3)c2-c2ccccn2)cc1` had an IC50 in assay [1] above 10 µM.

In assay [1], `Clc1ccc(-c2nc3n(c2-c2ccncc2)CCC3)cc1` showed a concentration for half-maximal inhibition (IC50) of 0.05 µM.

`Fc1ccc(-c2ncn(C3CCN(Cc4ccccc4)CC3)c2-c2ccncc2)cc1` registered an IC50 in assay [1] of 0.44 µM.

As to `C[S+]([O-])c1ccc(-c2nc3n(c2-c2ccncc2)CCC3)cc1` (configuration not stated), the IC50 in assay [2] and in assay [1] was above 10 µM each time.

In the case of `C[S+]([O-])c1ccc(-c2nc(-c3cccs3)c(-c3ccncc3)[nH]2)cc1` (configuration not stated), the IC50 in assay [1] was found to be 0.46 µM.

For `Fc1ccc(-c2ncn(CCCNCc3ccccc3)c2-c2ccncc2)cc1`, the IC50 in assay [2] was found to be 0.59 µM.

As for `C[S+]([O-])c1cccc(-c2ncn(CCCN3CCOCC3)c2-c2ccncc2)c1` (configuration not stated), in assay [2], the half-inhibitory concentration (IC50) is above 5 µM.

`CC(=O)OCCn1cnc(-c2ccc(F)cc2)c1-c1ccncc1` registered an IC50 in assay [1] of 0.05 µM.

In turn, `O=C1CN(c2ccc(-c3nc(-c4ccc(F)cc4)c(-c4ccncc4)[nH]3)cc2)NO1` displayed an IC50 in assay [1] of 0.03 µM.

As for `Fc1ccc(-c2nc3n(c2-c2ccncc2)CCC3)cc1`, the half-maximal inhibitory concentration (IC50) in assay [2] was 0.17 µM; in assay [1], 0.066 µM.

On to `CC(=O)OCCc1nc(-c2ccncc2)c(-c2ccc(F)cc2)[nH]1`, for which, in assay [1], the IC50 was above 10 µM.

Regarding `C[S+]([O-])c1ccc(-n2cnc(-c3ccc(F)cc3)c2-c2ccncc2)cc1` (configuration not stated), in assay [2], the IC50 is 2.3 µM. This counts as single-digit micromolar.

Regarding `COc1ccc(-c2nc3n(c2-c2ccncc2)CCC3)cc1`, the half-inhibitory concentration (IC50) was 4.2 µM in assay [2] and 3.6 µM in assay [1].

Regarding `O=[N+]([O-])c1ccc(-c2nc(-c3ccc(F)cc3)c(-c3ccccc3)[nH]2)cc1`, the IC50 in assay [2] was above 5 µM; in assay [1], above 10 µM; in assay [3], above 2.5 µM.

For `Fc1ccc(-c2c(-c3ccncc3)nc3n2CCC3)cc1`, in assay [1], the IC50 is above 10 µM.

Regarding `Clc1nc2n(c1-c1ccncc1)CCC2`, in assay [1], the half-inhibitory concentration (IC50) is above 50 µM.

Take `Fc1ccc(-c2ncn(CCCN3CCOCC3)c2-c2cccnc2)cc1`: the concentration for half-maximal inhibition (IC50) in assay [1] is above 10 µM.

Turning to `CSc1ccc(-c2nc3n(c2-c2ccncc2)CCC3)cc1`, the results for the 50% inhibitory concentration (IC50) in assay [2] and in assay [1] were 2.7 µM and 3.4 µM, respectively.

Consider `Brc1ccc(-c2nc3n(c2-c2ccncc2)CCC3)cc1`, for which the results for the IC50 in assay [2] and in assay [1] were 0.7 µM and 3.2 µM, respectively.

Consider `CCc1nc[nH]c1-c1ccncc1`, for which the 50% inhibitory concentration (IC50) in assay [2] was above 5 µM; in assay [1], above 30 µM; in assay [3], above 2.5 µM.

As to `CSc1cccc(-c2ncn(CCCN3CCOCC3)c2-c2ccncc2)c1`, the 50% inhibitory concentration (IC50) in assay [2] is 1 µM.

Regarding `CCSc1ccc(-c2nc3n(c2-c2ccncc2)CCC3)cc1`, the IC50 in assay [2] was above 20 µM; in assay [1], 5.6 µM.
